Experimental data reported in ChEMBL document CHEMBL5316320, “Discovery of Novel Indazole Chemotypes as Isoform-Selective JNK3 Inhibitors for the Treatment of Parkinson's Disease” (J Med Chem, 2023).

How the values were obtained:
[1] = target: Mitogen-activated protein kinase 10 (Homo sapiens, UniProt P53779)
[2] = target: T1, Mitogen-activated protein kinase 8 (Homo sapiens, UniProt P45983)
[3] = target: T2, Serine/threonine-protein kinase D3 (Homo sapiens, UniProt O94806); assay: Inhibition of PKD3 (unknown origin) by kinase profiling assay
T2 sequence (O94806 whole entry): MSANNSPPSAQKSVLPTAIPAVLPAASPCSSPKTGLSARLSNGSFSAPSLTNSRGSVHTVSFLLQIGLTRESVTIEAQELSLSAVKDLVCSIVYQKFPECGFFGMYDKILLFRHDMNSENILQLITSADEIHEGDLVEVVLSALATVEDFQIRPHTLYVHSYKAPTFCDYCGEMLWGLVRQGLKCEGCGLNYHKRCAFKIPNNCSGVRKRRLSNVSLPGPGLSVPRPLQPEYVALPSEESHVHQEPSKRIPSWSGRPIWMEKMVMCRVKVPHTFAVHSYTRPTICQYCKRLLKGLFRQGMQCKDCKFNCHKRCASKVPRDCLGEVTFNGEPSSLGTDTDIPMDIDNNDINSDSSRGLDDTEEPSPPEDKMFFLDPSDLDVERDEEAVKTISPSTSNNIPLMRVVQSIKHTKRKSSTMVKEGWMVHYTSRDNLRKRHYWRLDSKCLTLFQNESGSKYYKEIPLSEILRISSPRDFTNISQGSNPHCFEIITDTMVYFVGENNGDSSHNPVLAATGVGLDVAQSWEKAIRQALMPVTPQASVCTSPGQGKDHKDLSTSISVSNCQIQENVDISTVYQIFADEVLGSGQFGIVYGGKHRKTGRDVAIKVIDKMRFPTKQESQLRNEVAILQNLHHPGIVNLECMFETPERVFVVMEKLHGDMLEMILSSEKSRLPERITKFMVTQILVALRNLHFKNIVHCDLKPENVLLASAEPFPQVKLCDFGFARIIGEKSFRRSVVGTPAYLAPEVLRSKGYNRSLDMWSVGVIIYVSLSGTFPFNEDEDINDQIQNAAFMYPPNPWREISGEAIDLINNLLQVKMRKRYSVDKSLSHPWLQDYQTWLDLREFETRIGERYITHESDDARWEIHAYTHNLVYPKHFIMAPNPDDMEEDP

[4] = target: TRAF2 and NCK-interacting protein kinase (Homo sapiens, UniProt Q9UKE5); assay: Inhibition of TNIK (unknown origin) by kinase profiling assay
[5] = target: T3, Dual specificity mitogen-activated protein kinase kinase 4 (Homo sapiens, UniProt P45985); assay: Inhibition of MKK4 (unknown origin) by kinase profiling assay
T3 sequence (P45985 whole entry): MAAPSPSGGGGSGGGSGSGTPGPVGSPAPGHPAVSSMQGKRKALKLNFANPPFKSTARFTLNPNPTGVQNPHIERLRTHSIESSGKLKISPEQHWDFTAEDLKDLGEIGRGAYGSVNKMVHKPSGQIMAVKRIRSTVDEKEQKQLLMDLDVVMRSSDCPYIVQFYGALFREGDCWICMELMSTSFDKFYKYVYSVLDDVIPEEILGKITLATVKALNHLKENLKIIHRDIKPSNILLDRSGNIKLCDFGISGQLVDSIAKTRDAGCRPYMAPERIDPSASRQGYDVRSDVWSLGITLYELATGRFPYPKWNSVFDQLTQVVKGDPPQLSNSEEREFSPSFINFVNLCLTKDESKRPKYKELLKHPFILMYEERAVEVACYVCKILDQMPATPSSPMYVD

[6] = target: Mitogen-activated protein kinase 9 (Homo sapiens, UniProt P45984); assay: Inhibition of JNK2 (unknown origin) by kinase profiling assay
[7] = target: Voltage-gated inwardly rectifying potassium channel KCNH2 (Homo sapiens, UniProt Q12809)
[8] = target: T4, Dual specificity mitogen-activated protein kinase kinase 7 (Homo sapiens, UniProt O14733); assay: Inhibition of MKK7 (unknown origin) by kinase profiling assay
T4 sequence (O14733 whole entry): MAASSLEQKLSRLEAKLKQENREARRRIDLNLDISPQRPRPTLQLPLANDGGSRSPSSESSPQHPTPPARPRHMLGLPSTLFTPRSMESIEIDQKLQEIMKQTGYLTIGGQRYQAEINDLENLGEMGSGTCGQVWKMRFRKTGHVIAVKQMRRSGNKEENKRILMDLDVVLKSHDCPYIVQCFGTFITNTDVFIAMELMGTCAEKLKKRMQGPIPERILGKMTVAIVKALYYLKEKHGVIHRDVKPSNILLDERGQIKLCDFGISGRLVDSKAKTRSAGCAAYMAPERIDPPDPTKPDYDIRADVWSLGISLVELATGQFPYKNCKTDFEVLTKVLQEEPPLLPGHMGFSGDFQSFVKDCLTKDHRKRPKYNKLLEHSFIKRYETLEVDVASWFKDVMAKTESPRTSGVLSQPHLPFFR

[9] = target: Cyclin-dependent kinase-like 3 (Homo sapiens, UniProt Q8IVW4); assay: Inhibition of CDKL3 (unknown origin) by kinase profiling assay
[10] = target: T1, Mitogen-activated protein kinase 8; assay: Inhibition of JNK1 (unknown origin) by kinase profiling assay
[11] = target: Vascular endothelial growth factor receptor 3 (Homo sapiens, UniProt P35916); assay: Inhibition of FLT4 (unknown origin) by kinase profiling assay
Chain of Vascular endothelial growth factor receptor 3 (P35916 whole entry): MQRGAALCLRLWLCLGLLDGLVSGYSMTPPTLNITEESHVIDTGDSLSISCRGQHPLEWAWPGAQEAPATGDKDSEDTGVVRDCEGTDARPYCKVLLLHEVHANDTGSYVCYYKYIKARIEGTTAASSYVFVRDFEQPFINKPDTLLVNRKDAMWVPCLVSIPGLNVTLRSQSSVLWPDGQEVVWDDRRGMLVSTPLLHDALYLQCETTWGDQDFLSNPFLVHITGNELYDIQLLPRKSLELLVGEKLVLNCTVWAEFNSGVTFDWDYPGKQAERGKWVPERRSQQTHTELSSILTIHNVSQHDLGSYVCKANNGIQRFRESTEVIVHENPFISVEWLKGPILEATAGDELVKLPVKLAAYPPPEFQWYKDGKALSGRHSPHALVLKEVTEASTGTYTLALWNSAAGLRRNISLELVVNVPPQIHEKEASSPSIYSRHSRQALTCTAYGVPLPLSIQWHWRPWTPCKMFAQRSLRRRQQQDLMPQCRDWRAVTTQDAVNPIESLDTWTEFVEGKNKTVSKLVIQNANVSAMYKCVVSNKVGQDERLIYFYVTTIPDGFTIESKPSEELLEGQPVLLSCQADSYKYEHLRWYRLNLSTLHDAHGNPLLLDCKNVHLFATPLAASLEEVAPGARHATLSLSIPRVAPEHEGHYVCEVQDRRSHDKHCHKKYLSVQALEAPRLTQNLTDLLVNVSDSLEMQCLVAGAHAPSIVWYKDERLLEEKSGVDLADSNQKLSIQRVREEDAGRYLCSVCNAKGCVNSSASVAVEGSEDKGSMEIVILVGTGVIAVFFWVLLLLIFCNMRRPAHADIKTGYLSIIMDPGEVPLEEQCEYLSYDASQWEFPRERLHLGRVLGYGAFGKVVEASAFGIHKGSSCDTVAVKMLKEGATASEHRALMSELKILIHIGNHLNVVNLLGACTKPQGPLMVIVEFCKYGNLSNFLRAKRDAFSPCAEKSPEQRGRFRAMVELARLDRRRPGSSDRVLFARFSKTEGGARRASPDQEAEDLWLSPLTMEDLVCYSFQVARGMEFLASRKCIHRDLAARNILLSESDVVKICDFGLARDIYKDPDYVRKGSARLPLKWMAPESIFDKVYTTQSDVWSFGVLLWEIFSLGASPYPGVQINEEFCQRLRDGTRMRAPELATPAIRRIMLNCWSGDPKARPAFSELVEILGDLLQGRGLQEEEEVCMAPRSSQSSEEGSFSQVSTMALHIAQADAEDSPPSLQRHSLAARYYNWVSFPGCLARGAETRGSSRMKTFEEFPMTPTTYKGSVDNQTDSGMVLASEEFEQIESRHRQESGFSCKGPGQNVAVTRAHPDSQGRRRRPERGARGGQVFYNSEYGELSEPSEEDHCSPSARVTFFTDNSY

Chain of Mitogen-activated protein kinase 10 (P53779 whole entry): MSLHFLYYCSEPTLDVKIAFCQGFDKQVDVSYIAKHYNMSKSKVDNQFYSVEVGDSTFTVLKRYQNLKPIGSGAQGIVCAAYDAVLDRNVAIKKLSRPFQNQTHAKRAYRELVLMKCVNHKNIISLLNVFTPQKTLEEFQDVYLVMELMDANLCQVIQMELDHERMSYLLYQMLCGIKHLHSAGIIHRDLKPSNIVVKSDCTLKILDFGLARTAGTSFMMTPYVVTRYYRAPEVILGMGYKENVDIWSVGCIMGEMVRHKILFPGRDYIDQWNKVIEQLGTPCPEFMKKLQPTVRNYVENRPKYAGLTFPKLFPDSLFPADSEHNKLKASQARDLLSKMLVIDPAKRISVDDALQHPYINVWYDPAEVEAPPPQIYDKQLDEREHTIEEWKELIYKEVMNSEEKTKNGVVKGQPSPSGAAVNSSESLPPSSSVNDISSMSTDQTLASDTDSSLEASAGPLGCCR
T1 sequence (P45983 whole entry): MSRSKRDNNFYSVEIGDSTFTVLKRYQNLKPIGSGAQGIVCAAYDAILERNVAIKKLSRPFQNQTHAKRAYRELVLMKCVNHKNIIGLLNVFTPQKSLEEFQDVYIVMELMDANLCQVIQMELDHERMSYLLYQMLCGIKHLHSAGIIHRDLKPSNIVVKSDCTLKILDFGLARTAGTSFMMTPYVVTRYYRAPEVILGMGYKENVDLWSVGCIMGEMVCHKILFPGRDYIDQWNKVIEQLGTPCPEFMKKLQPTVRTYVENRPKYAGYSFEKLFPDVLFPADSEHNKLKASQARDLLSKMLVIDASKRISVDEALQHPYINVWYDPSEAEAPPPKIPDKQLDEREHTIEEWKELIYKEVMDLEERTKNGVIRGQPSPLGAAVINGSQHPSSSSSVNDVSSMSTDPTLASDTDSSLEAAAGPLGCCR
Chain of Mitogen-activated protein kinase 9 (P45984 whole entry): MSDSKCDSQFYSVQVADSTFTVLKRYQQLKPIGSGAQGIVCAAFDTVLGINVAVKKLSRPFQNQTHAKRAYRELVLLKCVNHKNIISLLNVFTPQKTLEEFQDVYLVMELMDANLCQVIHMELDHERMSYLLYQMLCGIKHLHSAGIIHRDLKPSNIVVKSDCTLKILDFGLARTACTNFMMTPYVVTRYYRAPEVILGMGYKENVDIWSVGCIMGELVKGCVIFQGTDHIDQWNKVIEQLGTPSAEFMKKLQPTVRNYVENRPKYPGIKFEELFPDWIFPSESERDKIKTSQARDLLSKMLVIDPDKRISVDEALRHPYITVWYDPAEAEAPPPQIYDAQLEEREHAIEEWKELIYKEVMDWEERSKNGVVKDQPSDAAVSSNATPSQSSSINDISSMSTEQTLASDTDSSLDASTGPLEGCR
Chain of TRAF2 and NCK-interacting protein kinase (Q9UKE5 whole entry): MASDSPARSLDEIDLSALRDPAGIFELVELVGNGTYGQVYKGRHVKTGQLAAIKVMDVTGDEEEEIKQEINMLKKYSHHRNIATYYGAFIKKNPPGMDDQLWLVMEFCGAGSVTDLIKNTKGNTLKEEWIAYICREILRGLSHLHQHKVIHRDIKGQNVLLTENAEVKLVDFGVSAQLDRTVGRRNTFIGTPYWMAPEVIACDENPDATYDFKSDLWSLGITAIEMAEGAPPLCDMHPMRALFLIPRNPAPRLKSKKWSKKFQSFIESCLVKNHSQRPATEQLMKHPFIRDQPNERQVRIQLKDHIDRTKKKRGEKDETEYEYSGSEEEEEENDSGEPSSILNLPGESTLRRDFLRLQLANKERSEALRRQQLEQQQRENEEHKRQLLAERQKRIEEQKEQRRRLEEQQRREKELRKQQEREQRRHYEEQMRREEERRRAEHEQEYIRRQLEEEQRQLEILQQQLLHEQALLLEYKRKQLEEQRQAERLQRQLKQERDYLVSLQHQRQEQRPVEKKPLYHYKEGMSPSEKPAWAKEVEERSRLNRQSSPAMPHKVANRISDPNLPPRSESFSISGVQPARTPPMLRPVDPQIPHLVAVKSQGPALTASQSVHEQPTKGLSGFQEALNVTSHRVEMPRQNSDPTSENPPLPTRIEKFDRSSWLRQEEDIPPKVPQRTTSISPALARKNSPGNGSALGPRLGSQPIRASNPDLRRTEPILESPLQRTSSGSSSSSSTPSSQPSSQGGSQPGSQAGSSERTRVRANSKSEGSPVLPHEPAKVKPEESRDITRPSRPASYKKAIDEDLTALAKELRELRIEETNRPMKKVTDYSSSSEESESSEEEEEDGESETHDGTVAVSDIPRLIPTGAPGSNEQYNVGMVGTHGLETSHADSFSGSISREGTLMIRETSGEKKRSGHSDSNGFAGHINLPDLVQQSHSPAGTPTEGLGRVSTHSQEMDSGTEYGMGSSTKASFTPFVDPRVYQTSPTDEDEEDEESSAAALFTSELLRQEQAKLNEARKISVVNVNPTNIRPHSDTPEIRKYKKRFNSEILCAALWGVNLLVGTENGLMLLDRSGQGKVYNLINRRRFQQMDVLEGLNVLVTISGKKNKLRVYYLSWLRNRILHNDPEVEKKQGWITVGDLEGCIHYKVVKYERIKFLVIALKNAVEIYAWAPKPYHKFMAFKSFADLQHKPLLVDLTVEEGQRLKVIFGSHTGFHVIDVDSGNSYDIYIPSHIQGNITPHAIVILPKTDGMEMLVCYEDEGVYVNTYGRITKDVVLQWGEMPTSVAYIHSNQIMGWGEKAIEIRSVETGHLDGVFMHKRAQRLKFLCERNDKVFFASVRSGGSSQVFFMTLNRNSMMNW
Chain of Cyclin-dependent kinase-like 3 (Q8IVW4 whole entry): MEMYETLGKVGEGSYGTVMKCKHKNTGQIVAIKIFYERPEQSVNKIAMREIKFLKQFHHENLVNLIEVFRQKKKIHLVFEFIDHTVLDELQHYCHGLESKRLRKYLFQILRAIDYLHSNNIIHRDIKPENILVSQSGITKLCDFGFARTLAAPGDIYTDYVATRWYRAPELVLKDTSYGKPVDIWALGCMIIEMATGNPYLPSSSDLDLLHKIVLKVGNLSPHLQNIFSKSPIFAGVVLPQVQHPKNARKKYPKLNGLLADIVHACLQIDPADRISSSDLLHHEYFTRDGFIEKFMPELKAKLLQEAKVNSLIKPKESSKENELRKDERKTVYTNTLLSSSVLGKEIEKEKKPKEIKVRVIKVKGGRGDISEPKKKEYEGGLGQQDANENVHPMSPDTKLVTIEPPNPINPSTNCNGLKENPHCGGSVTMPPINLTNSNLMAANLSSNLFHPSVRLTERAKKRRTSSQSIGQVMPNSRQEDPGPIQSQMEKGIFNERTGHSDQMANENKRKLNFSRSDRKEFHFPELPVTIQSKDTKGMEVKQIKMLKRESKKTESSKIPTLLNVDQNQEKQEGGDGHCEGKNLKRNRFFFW

| SMILES | IC50 [1] [µM] | IC50 [2] [µM] | further results |
| --- | --- | --- | --- |
| O=C(c1cccc(CNc2n[nH]c3ccccc23)c1)N1CCN(C(=O)c2cc(C(F)(F)F)ccc2F)CC1 | 4.46 | – | – |
| Cn1nc(NCc2cccc(C(=O)N3CCN(C(=O)c4ccc(Cl)cc4Cl)CC3)c2)c2ccccc21 | > 10 | > 10 | – |
| COc1ccc(C(=O)N2CCN(C(=O)c3ccc(CNc4n[nH]c5ccccc45)cc3)CC2)c(Cl)c1 | – | > 10 | – |
| O=C(c1ccc(CNc2n[nH]c3ccccc23)cc1)N1CCN(C(=O)c2ccc(F)cc2Cl)CC1 | 0.647 | 9.07 | – |
| O=C1c2ccccc2C2=NNC3=CC=CC1C32 (stereo unspecified) | – | 0.0423 | – |
| O=C(c1cccc(CNc2n[nH]c3cccc(F)c23)c1)N1CCN(C(=O)c2ccc(Cl)cc2Cl)CC1 | 0.189 | 8 | – |
| O=C(Nc1cc(C(F)(F)F)cc(C(F)(F)F)c1)N1CCN(C(=O)c2ccc(CNc3n[nH]c4ccccc34)cc2)CC1 | 8.03 | > 10 | – |
| Cc1cccc(Cl)c1C(=O)N1CCN(C(=O)c2ccc(CNc3n[nH]c4ccccc34)cc2)CC1 | – | > 10 | – |
| O=C(c1ccc(CNc2n[nH]c3ccccc23)cc1)N1CCN(C(=O)c2cc(Cl)ccc2Cl)CC1 | 0.205 | 7.61 | – |
| O=C(c1cccc(CNc2n[nH]c3cc(Cl)ccc23)c1)N1CCN(C(=O)c2ccc(Cl)cc2Cl)CC1 | 0.239 | – | – |
| O=C(c1cccc(CNc2n[nH]c3c(Cl)cc([N+](=O)[O-])cc23)c1)N1CCN(C(=O)c2ccc(Cl)cc2Cl)CC1 | > 10 | > 10 | – |
| O=C(c1ccc(CNc2n[nH]c3ccccc23)cc1)N1CCN(C(=O)c2cccc(F)c2Cl)CC1 | 0.384 | 8.91 | – |
| O=C(c1ccc(CNc2n[nH]c3ccccc23)cc1)N1CCN(C(=O)c2ccc(OC(F)(F)F)cc2)CC1 | 0.325 | 7.68 | – |
| O=C(c1cccc(CNc2n[nH]c3cccc(Cl)c23)c1)N1CCN(C(=O)c2ccc(Cl)cc2Cl)CC1 | – | > 10 | IC50 [3]: 0.624 µM; IC50 [4]: 0.367 µM; IC50 [5]: > 10 µM; IC50 [6]: 9.27 µM; IC50 [7]: > 30 µM; IC50 [8]: > 10 µM; IC50 [9]: 0.669 µM; IC50 [10]: > 10 µM; IC50 [11]: 0.423 µM |
| O=C(c1ccc(CNc2n[nH]c3ccccc23)cc1)N1CCN(C(=O)c2c(Cl)cccc2C(F)(F)F)CC1 | 0.253 | 7.66 | – |
| O=C(c1cccc(CNc2n[nH]c3ccccc23)c1)N1CCN(C(=O)c2c(F)cccc2Cl)CC1 | 4.3 | 7.82 | – |
| O=C(c1ccc(CNc2n[nH]c3ccccc23)cc1)N1CCN(C(=O)c2ccc(Br)cc2Br)CC1 | 0.248 | 8.85 | – |
| O=C(c1ccc(CNc2n[nH]c3ccccc23)cc1)N1CCN(C(=O)c2cc(C(F)(F)F)ccc2Cl)CC1 | 0.282 | 9.87 | – |
| O=C(c1ccc(CNc2n[nH]c3ccccc23)cc1)N1CCN(C(=O)c2cccc(C(F)(F)F)c2)CC1 | 0.927 | 7.8 | – |
| Cc1ccc(Cl)c(C(=O)N2CCN(C(=O)c3ccc(CNc4n[nH]c5ccccc45)cc3)CC2)c1 | 0.588 | > 10 | – |
| Cc1cccc2c(NCc3cccc(C(=O)N4CCN(C(=O)c5ccc(Cl)cc5Cl)CC4)c3)n[nH]c12 | > 10 | > 10 | – |
| O=C(c1ccc(CNc2n[nH]c3ccccc23)cc1)N1CCN(C(=O)c2c(Cl)cccc2Cl)CC1 | 0.279 | – | – |
| COc1ccc(C(=O)N2CCN(C(=O)c3ccc(CNc4n[nH]c5ccccc45)cc3)CC2)cc1 | 0.615 | 7.7 | – |
| O=C(c1cccc(CNc2n[nH]c3ccccc23)c1)N1CCN(C(=O)c2ccc(Cl)cc2Cl)CC1 | 4.03 | 7.59 | – |

Second part, led by results:

| IC50 [1] [µM] | IC50 [2] [µM] | SMILES | further results |
| --- | --- | --- | --- |
| > 10 | > 10 | O=C(Nc1ccccc1)c1ccc(CNc2n[nH]c3ccccc23)cc1 | – |
| > 10 | > 10 | COc1ccc(NC(=O)c2ccc(CNc3n[nH]c4ccccc34)cc2)cc1 | – |
| 7.51 | 8.07 | O=C(c1ccc(CNc2n[nH]c3ccccc23)cc1)N1CCCC1 | – |
| > 10 | > 10 | O=C(Nc1ccc(Cl)cc1)c1ccc(CNc2n[nH]c3ccccc23)cc1 | – |
| 0.619 | 7.79 | O=C(Nc1ccccc1Cl)N1CCN(C(=O)c2ccc(CNc3n[nH]c4ccccc34)cc2)CC1 | – |
| > 10 | > 10 | Cc1cc(NC(=O)c2ccc(CNc3n[nH]c4ccccc34)cc2)ccc1Cl | – |
| – | 9.06 | O=C(NN1CCCCC1)c1ccc(CNc2n[nH]c3ccccc23)cc1 | – |
| 0.305 | 8.82 | O=C(c1ccc(Cl)cc1)N1CCN(C(=O)c2ccc(CNc3n[nH]c4ccccc34)cc2)CC1 | – |
| 0.399 | 7.69 | O=C(c1ccc(CNc2n[nH]c3ccccc23)cc1)N1CCN(C(=O)c2ccccc2I)CC1 | – |
| > 10 | > 10 | O=C(NCCc1ccccc1)c1ccc(CNc2n[nH]c3ccccc23)cc1 | – |
| 0.394 | 8.28 | O=C(c1ccc(CNc2n[nH]c3ccccc23)cc1)N1CCN(C(=O)c2ccccc2OC(F)(F)F)CC1 | – |
